Data as given in article PMC4579270, “Identification and Characterization of an Irreversible Inhibitor of CDK2” (Chemistry & Biology, 2015).
Where two headings read alike, the source gives them in different places.

Key:
Assay in all cases: Dundee kinase screen re-test (standard format and 4 hour pre-incubation)
Assay type in all cases: biochemical
EPH-B3 = biological target: T1, EPH-B3 (Homo sapiens, UniProt P54753); conditions: EPH-B3, 0.5µM
T1 sequence (P54753 34-998): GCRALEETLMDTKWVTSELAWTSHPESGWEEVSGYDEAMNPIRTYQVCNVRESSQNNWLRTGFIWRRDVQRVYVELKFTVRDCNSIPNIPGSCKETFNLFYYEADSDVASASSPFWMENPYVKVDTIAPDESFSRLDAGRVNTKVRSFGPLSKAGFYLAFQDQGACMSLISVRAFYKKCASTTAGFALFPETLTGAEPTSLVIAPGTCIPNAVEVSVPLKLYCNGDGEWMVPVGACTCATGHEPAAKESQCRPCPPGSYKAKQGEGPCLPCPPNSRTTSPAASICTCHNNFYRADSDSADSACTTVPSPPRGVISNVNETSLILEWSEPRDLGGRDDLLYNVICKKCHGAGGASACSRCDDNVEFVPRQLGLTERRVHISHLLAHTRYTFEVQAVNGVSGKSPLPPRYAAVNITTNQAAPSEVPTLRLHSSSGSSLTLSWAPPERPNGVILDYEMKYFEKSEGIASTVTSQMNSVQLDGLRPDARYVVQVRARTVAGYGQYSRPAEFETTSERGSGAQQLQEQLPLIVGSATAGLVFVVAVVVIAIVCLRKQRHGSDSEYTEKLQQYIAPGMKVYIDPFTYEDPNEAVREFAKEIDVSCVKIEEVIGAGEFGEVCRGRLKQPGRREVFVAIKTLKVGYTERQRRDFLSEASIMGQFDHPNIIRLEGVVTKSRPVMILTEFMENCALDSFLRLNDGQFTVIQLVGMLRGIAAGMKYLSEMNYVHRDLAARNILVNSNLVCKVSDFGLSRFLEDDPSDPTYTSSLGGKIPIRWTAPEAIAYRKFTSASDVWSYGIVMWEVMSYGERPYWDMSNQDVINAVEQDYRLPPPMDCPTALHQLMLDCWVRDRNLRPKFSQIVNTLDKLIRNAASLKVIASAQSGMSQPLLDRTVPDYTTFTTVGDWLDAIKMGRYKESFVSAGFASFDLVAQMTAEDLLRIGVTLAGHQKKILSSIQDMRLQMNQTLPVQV
How it was run: (§1)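 Selectivity panel of 131 protein kinases, inhibitor tested at a single concentration of 1 µM; values are % kinase activity remaining, mean of duplicates. Re-test of selected kinases used 0.5 µM in the standard format and again after a 4 hour pre-incubation with the inhibitor.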

ERK8 = biological target: T2, ERK8 (Homo sapiens, UniProt Q8TD08); conditions: ERK8, 0.5µM
T2 sequence (Q8TD08 1-544): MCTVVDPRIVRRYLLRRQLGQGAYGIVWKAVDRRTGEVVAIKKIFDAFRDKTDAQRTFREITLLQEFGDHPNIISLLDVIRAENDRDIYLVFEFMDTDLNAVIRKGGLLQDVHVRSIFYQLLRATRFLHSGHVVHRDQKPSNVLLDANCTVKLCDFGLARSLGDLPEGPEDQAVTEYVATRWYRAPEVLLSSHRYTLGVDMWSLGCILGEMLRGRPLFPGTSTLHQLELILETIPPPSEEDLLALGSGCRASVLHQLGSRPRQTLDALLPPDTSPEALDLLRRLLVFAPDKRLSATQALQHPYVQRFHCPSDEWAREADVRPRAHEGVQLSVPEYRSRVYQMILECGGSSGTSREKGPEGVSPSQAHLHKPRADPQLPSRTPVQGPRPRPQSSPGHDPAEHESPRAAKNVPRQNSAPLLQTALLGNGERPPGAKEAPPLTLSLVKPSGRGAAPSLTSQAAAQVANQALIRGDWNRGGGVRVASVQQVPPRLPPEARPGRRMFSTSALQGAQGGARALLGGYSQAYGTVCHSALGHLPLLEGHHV
How it was run: as §1

JNK3 = JNK3 (Homo sapiens, UniProt P53779); conditions: JNK3, 0.5µM
Chain of JNK3 (P53779 whole entry): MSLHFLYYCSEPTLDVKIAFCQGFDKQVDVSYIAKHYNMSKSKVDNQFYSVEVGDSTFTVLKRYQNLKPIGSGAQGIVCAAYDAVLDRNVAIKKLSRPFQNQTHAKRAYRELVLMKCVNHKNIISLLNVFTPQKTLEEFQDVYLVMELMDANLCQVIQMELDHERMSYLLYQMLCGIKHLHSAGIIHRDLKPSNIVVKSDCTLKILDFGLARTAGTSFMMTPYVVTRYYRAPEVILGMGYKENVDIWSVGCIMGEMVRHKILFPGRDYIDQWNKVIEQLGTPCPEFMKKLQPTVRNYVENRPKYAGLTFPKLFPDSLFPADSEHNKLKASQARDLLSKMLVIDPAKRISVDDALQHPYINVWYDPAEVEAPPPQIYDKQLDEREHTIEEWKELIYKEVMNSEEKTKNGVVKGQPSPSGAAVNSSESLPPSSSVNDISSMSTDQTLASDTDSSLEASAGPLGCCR
How it was run: as §1

MLK3 = MLK3 (Homo sapiens, UniProt Q16584); conditions: MLK3, 0.5µM
Chain of MLK3 (Q16584 whole entry): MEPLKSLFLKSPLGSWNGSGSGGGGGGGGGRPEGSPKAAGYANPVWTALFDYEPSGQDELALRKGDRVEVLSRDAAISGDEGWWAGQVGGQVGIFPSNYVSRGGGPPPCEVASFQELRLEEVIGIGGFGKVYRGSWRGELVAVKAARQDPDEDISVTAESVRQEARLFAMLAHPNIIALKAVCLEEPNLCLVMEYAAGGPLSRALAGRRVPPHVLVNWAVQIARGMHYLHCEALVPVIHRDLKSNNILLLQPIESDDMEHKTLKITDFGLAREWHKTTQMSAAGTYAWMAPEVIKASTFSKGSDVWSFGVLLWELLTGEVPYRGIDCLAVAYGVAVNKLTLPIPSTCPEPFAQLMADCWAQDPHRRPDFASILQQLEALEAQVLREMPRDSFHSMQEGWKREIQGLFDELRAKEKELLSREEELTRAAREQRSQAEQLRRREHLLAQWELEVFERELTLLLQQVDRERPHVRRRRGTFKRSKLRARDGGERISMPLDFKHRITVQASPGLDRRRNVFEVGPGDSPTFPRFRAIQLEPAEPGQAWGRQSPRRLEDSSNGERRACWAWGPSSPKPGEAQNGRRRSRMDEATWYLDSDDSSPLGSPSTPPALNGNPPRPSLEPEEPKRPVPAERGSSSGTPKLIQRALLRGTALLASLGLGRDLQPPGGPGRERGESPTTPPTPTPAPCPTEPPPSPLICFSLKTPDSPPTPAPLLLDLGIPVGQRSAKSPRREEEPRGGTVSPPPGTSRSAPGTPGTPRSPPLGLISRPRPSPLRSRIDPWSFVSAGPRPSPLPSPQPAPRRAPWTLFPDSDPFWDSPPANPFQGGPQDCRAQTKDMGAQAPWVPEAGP
How it was run: as §1

TSSK1 = biological target: T3, TSSK1 (Homo sapiens, UniProt Q9BXA7); conditions: TSSK1, 0.5µM
T3 sequence (Q9BXA7 1-367): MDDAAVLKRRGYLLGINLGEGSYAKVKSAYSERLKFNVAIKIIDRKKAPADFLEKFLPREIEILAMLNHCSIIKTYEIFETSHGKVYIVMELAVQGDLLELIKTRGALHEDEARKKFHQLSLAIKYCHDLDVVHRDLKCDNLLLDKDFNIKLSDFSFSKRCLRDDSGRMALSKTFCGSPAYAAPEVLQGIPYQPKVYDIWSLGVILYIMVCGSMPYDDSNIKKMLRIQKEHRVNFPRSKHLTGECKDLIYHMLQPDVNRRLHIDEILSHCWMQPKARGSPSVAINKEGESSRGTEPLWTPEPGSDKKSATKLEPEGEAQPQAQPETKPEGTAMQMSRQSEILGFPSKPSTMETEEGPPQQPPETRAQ
How it was run: as §1

[1] = 4hr RT preincubation, read-out: %Remaining activity at 0.5µM NU6300 - 4hr RT preincubation
[2] = usual format, read-out: %Remaining activity at 0.5µM NU6300 - Usual assay format

Structure (SMILES): C=CS(=O)(=O)c1ccc(Nc2nc(OCC3CCCCC3)c3nc[nH]c3n2)cc1 [NU6300, 6-(cyclohexylmethoxy)-N-(4-(vinylsulfonyl)phenyl)-9H-purin-2-amine]
- remaining activity at 0.5 µM (EPH-B3; [1]): 17%
- remaining activity at 0.5 µM (EPH-B3; [2]): 12%
- remaining activity at 0.5 µM (ERK8; [1]): 68%
- remaining activity at 0.5 µM (ERK8; [2]): 20%
- remaining activity at 0.5 µM (JNK3; [1]): 98%
- remaining activity at 0.5 µM (JNK3; [2]): 53%
- remaining activity at 0.5 µM (MLK3; [1]): 52%
- remaining activity at 0.5 µM (MLK3; [2]): 5%
- remaining activity at 0.5 µM (TSSK1; [1]): 67%
- remaining activity at 0.5 µM (TSSK1; [2]): 53%
